One experiment deals with T1, LXR alpha (Homo sapiens, UniProt Q13133).
T1 construct: LXR alpha or beta LBD-GST; purchased ThermoFisher PV4655
T1 sequence (Q13133 209-447 limits assumed): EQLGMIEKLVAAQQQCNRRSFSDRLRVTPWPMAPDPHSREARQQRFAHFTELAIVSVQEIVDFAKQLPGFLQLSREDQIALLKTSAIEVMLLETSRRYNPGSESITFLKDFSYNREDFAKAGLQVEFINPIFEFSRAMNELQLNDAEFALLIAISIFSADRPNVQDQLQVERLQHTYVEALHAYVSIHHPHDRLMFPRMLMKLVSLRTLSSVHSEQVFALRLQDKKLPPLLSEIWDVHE
The experiment can be described thus: LanthaScreen TR-FRET LXR alpha Coactivator Assay (cell-free binding). The following applies: TR-FRET, 12-point curve; read-out: Cell free binding LXRα IC50.

In another experiment the target is T2, LXR beta (Homo sapiens, UniProt P55055).
T2 construct: LXR alpha or beta LBD-GST; purchased ThermoFisher PV4658
T2 sequence (P55055 222-460 limits assumed): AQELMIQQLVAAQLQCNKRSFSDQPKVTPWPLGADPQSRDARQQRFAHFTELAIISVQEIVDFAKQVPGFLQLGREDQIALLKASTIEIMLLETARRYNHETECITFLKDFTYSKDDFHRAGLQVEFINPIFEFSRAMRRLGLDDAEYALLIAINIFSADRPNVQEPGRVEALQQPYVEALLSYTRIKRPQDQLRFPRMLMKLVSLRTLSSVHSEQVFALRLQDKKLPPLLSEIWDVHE
As to the kind of experiment: LanthaScreen TR-FRET LXR beta Coactivator Assay (cell-free binding). The following applies: TR-FRET, 12-point curve; read-out: Cell free binding LXRβ IC50. (Time-resolved FRET reads energy transfer from a long-lived donor to a nearby acceptor.)

Another experiment concerns ABCG1. The experiment can be described thus: ABCG1 mRNA induction in differentiated THP-1 macrophages (TaqMan). It counts as cell-based, human. The settings on record: THP1 macrophages, 24-hour treatment; magnitude in words. The method, then: (§1) To determine the ability of LXR agonists to activate ABCA1 and ABCG1 genes, the mRNA levels of these two genes in differentiated macrophages was measured. […] Cells were differentiated into macrophages by treatment with 100 nM Phorbol-12 myristate 13-acetate (Sigma, # P8139), which was added to the media described above, for 72 hours. […] Chloroform was then used for phase separation. The aqueous phase, containing total RNA, was purified using MagMAX™-96 for Microarrays Total RNA Isolation Kit (Ambion, Cat # AM1830) and reverse-transcribed into cDNA using SuperScript® VILO™ Master Mix (Invitrogen, Cat #11755050) as per the manufacturer's instructions. TaqMan® was performed using Gene Expression Master Mix, the ABI 7900HT Sequence Detection System (Applied Biosystems) and the primers and probes indicated below in Table 9. The GAPDH gene was used as the internal control gene to normalize any cDNA input differences.
On the technique in general: Real-time PCR tracks product formation cycle by cycle.

The subject of a further experiment is ABCA1. The experiment can be described thus: ABCA1 mRNA induction in differentiated THP-1 macrophages (TaqMan). Format: cell-based, human. The following applies: THP1 macrophages, 24-hour treatment; magnitude in words. The method, then: as §1
For a further experiment, the system named is THP1/LXR-Luc/Her2 cells. As to the kind of experiment: THP1/LXR-Luc/Her2 luciferase reporter bioassay. Format: cell-based. The following applies: Homo sapiens. An excerpt: A bioassay was developed to assess the activity of LXR agonists after internalization of an agonist or of a ncADC into cells and binding to LXR, a nuclear receptor, using a commercially available LXR reporter (referred to as LXR-Luc) that contains the firefly luciferase gene under control by minimal CMV promoter and tandem repeats of the LXR transcriptional response element. For this assay, a THP1 cell line, which is a human monocytic leukaemia line, was engineered to express full length human Her2 (expressing amino acids M1 through V1255 of accession number NP_004439.2). The subsequent stable cell line was further transduced with a Cignal LXR Luc Reporter (Qiagen, Cat # CLS-7041L). The resulting stable cell line is referred to herein as THP1/Her2/LXR-Luc. The Her2 cell surface expression on THP1/Her2/LXR-Luc cell line was confirmed by FACS (data not shown).
This example assessed the ability of the LXR agonists provided herein, reference compounds, and anti-Her2 antibody-LXR ncADC to activate LXR. The samples were tested in the THP1/LXR-Luc/Her2 bioassay. For the assay, either THP1/LXR-Luc cells or THP1/LXR-Luc/Her2 cells were seeded onto white 96 well plates at 30,000 cells/well in media containing RPMI supplemented with 10% FBS and pencillin/streptomycin (complete media). Subsequently 3-fold serial dilutions of antibody drug conjugates, unconjugated antibodies, or free payloads were added to the cells at final concentration ranging from 100 nM to 0.01 nM. After 48-hour or 72-hour incubation, luciferase activity was determined after the addition of One-Glo™ reagent (Promega, Cat # E6130) to each well of cells. Relative light units (RLUs) were measured on a Victor luminometer (PerkinElmer) and the EC5o values were determined using a four-parameter logistic equation over a 10-point dose response curve (GraphPad Prism) (FIG. 15). The fold activation is calculated based on the maximum activation of the free payload 9d.
Background: Reporter assays use an easily measured gene product as a stand-in for the process of interest.

Another experiment deals with THP-1 cells. The experiment can be described thus: BODIPY-cholesterol efflux in THP-1 macrophages. It counts as cell-based, human. The settings on record: for EC50: Homo sapiens, THP-1. As for the experimental part: The ability of anti-MSR1 antibody-LXR conjugates to activate cholesterol efflux in a human macrophage cell line (THP-1; ATCC Catalog # TIB-202), was assessed using a fluorescent cholesterol analog.
Cells were differentiated into macrophages by addition of 100 nM Phorbol-12 myristate 13-acetate (Sigma, Catalog #P 8139) to the media and subjected to further incubation for 96 hours.
Percentage of BODIPY-cholesterol efflux was calculated using the following formula: [fluorescence in acceptor media/(fluorescence in acceptor media+fluorescence in cell lysate)]×100. Table 15 provides activated cholesterol efflux for the tested articles, and FIG. 15 illustrates the data in graph form.

“And” between values parts separate entries of the source, which are not always exact repeats. Equal values may be shown once. Read-outs that look alike come from different tables or passages of the source. A value given as a limit tells only on which side of the number the result lay.

As for `C[C@]1(C(=O)NC(=O)[C@@]2(C)CCC[C@]3(C)c4cc(O)ccc4CC[C@@H]23)CCC[C@]2(C)c3cc(N)ccc3CC[C@@H]12` [Compound 9d, (1S,4aS,10aR)—N-[(1S,4aS,10aR)-6-Amino-1,4a-dimethyl-1,2,3,4,4a,9,10,10a-octahydrophenanthrene-1-carbonyl]-6-hydroxy-1,4a-dimethyl-1,2,3,4,4a,9,10,10a-octahydrophenanthrene-1-carboxamide], the IC50 on LXR alpha and on LXR beta was under 10 nM throughout. For the same compound, the “ABCG1 induction EC50” value in the experiment with ABCG1 is “sub-picomolar”. The “ABCA1 induction EC50” value with ABCA1 is on record as “sub-picomolar”. Besides, the EC50 (as a rule, the concentration giving half of the maximal effect) in the experiment with THP1/LXR-Luc/Her2 cells (THP-1, 48 h, 48-hour time point) amounted to 1.6 nM; in the experiment with THP1/LXR-Luc/Her2 cells (THP-1, 48 h, 48 hours, unit inferred, values correspond to M), 1.6 nM; with THP1/LXR-Luc/Her2 cells (THP-1, 72 h, 72-hour time point), 2.8 nM; with THP1/LXR-Luc/Her2 cells (THP-1, 72 h, 72 hours) it was 2.8 nM; with THP-1 cells (24-hour treatment, read-out: Cholesterol Efflux activation EC50) it was 0.15 nM; in the experiment on THP-1 cells (after 24 hours, read-out: Cholesterol efflux EC50) it was 0.15 nM. In the experiment with THP-1 cells (24-hour treatment, BODIPY-cholesterol efflux), the “Maximum efflux (%)” value is 36.6% and 36.7%.

The record behind these values is patent US12338199B2, “Bis-octahydrophenanthrene carboxamides and protein conjugates thereof” (REGENERON PHARMACEUTICALS, INC., priority 2017, dated 2025).
